US20100256148A1, “USE OF CFMS INHIBITOR FOR TREATING OR PREVENTING BONE CANCER AND THE BONE LOSS AND BONE PAIN ASSOCIATED WITH BONE CANCER” (priority 2007, published 2010)

Columns and labels:
MRMT-1 cells = assay: Tactile (mechanical) allodynia in the MRMT-1 model; type: in vivo, rat
Experimental: Rat MRMT-1 bone metastasis model. Inoculation of rat mammary MRMT-1 adenocarcinoma cells into tibiae has been described as a bone metastasis model (Medhurst S J, et al., Pain 2002; 96:129-40. An adaptation of the model (Roudier M P, et al., Clin Exp Metastasis 2006, 23:167-75) was performed by MDS Pharma Services (Bothel, Wash.). Female Sprague-Dawley rats (Harlan Sprague Dawley, Inc., Indianapolis, Ind.) approximately 125-150 grams were acclimated one week. The animals were anesthetized with ketamine/xylazine, and the right leg area was shaved and scrubbed with chlorhexadine and 70% ethanol (SOP-SUR026). A 1-cm rostral-caudal incision was made in the skin over the top half of the tibia. […] Microradiographs were scored for tumor-induced osteolysis as follows: 0, no signs of destruction; 1, one to three small radiolucent lesions; 2, three to six lesions and loss of medullary bone; 3, loss of medullary bone and erosion of cortical bone; 4, full thickness uni-cortical bone loss; 5, full thickness bi-cortical bone loss and/or displaced skeletal fracture. […] For each tibia, the numbers of tumor-associated TRAP^+ osteoclasts were counted in the three 200×-fields with highest osteoclast frequency. […]
Pain Behavioral Assessments. […] The behavioral test for tactile allodynia, measured prior to surgery, was used for randomization of animals to the treatment groups. […]

[1] = test system: MRMT-1 rat mammary gland carcinoma cells; assay: Rat MRMT-1 bone metastasis model (osteolysis, osteoclasts, tumor); type: in vivo; set-up: key to Microradiograph score (five point visual score): 0 = no destruction to 5 = bi-cortical bone loss/fracture; key to Trabecular bone vol score (three point visual score): 0 = none, 1 = 1-10%, 2 = >10-<40% (normal), 3 = >40% area; key to Tumor vol score (three point visual score): 0 = none, 1 = small, 2 = moderate, 3 = large tumor
Experimental: Rat MRMT-1 bone metastasis model. Inoculation of rat mammary MRMT-1 adenocarcinoma cells into tibiae has been described as a bone metastasis model (Medhurst S J, et al., Pain 2002; 96:129-40. An adaptation of the model (Roudier M P, et al., Clin Exp Metastasis 2006, 23:167-75) was performed by MDS Pharma Services (Bothel, Wash.). Female Sprague-Dawley rats (Harlan Sprague Dawley, Inc., Indianapolis, Ind.) approximately 125-150 grams were acclimated one week. The animals were anesthetized with ketamine/xylazine, and the right leg area was shaved and scrubbed with chlorhexadine and 70% ethanol (SOP-SUR026). A 1-cm rostral-caudal incision was made in the skin over the top half of the tibia. Blunt-dissection exposed the proximal tibia, and a Hamilton syringe guided by a 23-gauge needle was used to inject 3 μl of saline (sham) or saline containing 3×10^4 MRMT-1 cells into the medullary cavity of the right proximal tibia of each rat. The injection site was closed with bone wax. The wound was closed with surgical staples. […] To serve as a control, a fourth group was dosed QOD sc with 0.03 mg/kg zoledronate in saline. Eight rats were dosed per group. Rats were sacrificed on Day 17. Right tibiae were excised, together with surrounding tumor tissue, and microradiographs prepared using an MX-20 x-ray system (Faxitron X-ray Corporation, Wheeling, Ill.). Microradiographs were scored for tumor-induced osteolysis as follows: 0, no signs of destruction; 1, one to three small radiolucent lesions; 2, three to six lesions and loss of medullary bone; 3, loss of medullary bone and erosion of cortical bone; 4, full thickness uni-cortical bone loss; 5, full thickness bi-cortical bone loss and/or displaced skeletal fracture. The radiographs were used to select representative bones from each group for microCT imaging. All tibia were fixed in 10% neutral buffered formalin for two days, decalcified and sectioned for histopathological evaluation. TRAP staining was performed as described previously in Liu, C., et al., 1987. […] For each tibia, the numbers of tumor-associated TRAP^+ osteoclasts were counted in the three 200×-fields with highest osteoclast frequency. A semi-quantitative three-point scoring method was used to compare treatment groups with regards to trabecular bone volume (3, >40 area; 2, >10%<40% area (normal); 1, 1-10% area; 0, none) and tumor volume (3, large; 2, moderate; 1, small; 0, none).

[2] = zoledronate 0.03 mpk QOD sc, Day 3 to Day 17, mean ± SEM

| Compound | mechanical allodynia of affected animals (MRMT-1 cells; morphine, from the 2nd time point forward) | full thickness cortical bone lesions ([1]; treated rats, day 17) | tumor-associated osteoclasts reduced by ([1]; zoledronate 0.03 mg/kg QOD sc) [%] | Microradiograph score (five point visual score) [1, 2] | Osteoclast Counts (TRAP positive cells, mean of three 200x fields) [1, 2] | Trabecular bone vol score (three point visual score) [1, 2] | Tumor vol score (three point visual score) [1, 2] | mechanical allodynia compared to tumor-inoculated animals (MRMT-1 cells; zoledronate treatment) |
| --- | --- | --- | --- | --- | --- | --- | --- | --- |
| CN1CC[C@]23c4c5ccc(O)c4O[C@H]2[C@@H](O)C=C[C@H]3[C@H]1C5 [morphine] | reversed allodynia |  |  |  |  |  |  |  |
| O=P(O)(O)C(O)(Cn1ccnc1)P(=O)(O)O [zoledronate, reference compound] |  | not observed | 64 | 0.38 ± 0.20 | 21.0 ± 3.2 | 2.63 ± 0.20 | 1.63 ± 0.20 | decreased allodynia compared to tumor-inoculated animals but this effect did not reach statistical significance |
